Experimental data as given in patent US20180087079A1, “METHODS OF USING CELL-CYCLE INHIBITORS TO MODULATE ONE OR MORE PROPERTIES OF A CELL CULTURE” (AMGEN INC., priority 2013, published 2018).
Blank lines part the entries; values can stand above or below the molecule they belong to.

What was measured:
CDK4/Cyclin D1 = molecular target: T1, CDK4/Cyclin D1 (Homo sapiens, UniProt P11802); test: CDK4 filtration kinase assay; format: biochemical; settings: CDK4/Cyclin D1, Rb fragment substrate, [33P]-ATP
T1 construct: purchased Cell Signaling Technology
Procedure: The CDK4 inhibitory activity of the cell cycle inhibitors was determined with a filtration kinase assay. The compounds, kinase and substrate diluted in the kinase buffer (20 mM Tris, pH7.4, 50 mM NaCl, 1 mM DTT, 0.1% BSA) were sequentially added to a 96-well Multiscreen HTS filtration plate (Millipore). The final 100 μL reaction mixture in each well contained 0.3 μg of CDK4/Cyclin D1 (Cell Signaling Technology), 1 μg of Rb fragment (aa773-928, Millipore) for the CDK4 assay and 1 μCi of [^33P]-ATP. The mixture was incubated at room temperature for 1 hour. The proteins in the reaction were then precipitated and washed with cold TCA solution using an aspiration/filtration vacuum system. The plates were dried at room temperature, and the retained radioactivity was measured by scintillation counting. IC50 values of the compounds in the above assays were determined by non-linear regression analysis using Prism (GraphPad Software).

Colo205 = test: [14C]-thymidine incorporation cell proliferation inhibition assay; format: cell-based; settings: Homo sapiens, COLO 205, 72 hour incubation
Procedure: The cell proliferation inhibition potency of the cell cycle inhibitors was determined by using a [^14C]-thymidine incorporation assay. Exponentially growing cells (Colo205) were seeded in a 96-well Cytostar T plate (GE Healthcare Biosciences) at a density of 5×10^3 cells/well and incubated overnight. Serially diluted compounds and 0.1 μCi of [^14C]-thymidine (GE Healthcare Biosciences) were added to each well on the following day. After 72 hour incubation, isotope incorporation was determined with a β plate counter (Wallac). IC50 values of the compounds in the above assays were determined by non-linear regression analysis using Prism (GraphPad Software).

[1] = test system: transfected CHO cells expressing recombinant human monoclonal antibody (cell line 1); test: 24-deep well culture, cell line 1: VCD, viability, titer, qP; format: cell-based, Chinese hamster; settings: for Titer / VCD / Viability / qP: Cell Line 1, 5 microM
Procedure: (§1) Transfected CHO cells expressing a recombinant human monoclonal antibody (mAb) are cultured in 24-deep well plates with seeding density at 1×10^7/mL for five days. At certain time periods, samples of the cultures are taken and evaluated for viable cell density (VCD; expressed in 10^6 cells/mL); percent viability (as determined by trypan blue exclusion); titer of recombinant protein (expressed in grams of protein per liter of culture, or g/L, as determined by Protein A affinity HPLC); qP, or specific productivity (expressed in picograms of recombinant protein per cell per day, or pg/c/d), the presence or absence of high molecular weight substances (usually an indicator of protein aggregation; expressed as % of the total protein); and the relative percentage of Mannose 5, a major intermediate glyco-form that attaches to N297 of the mAb. N-linked glycosylation has an impact on the tertiary structure of the antibody and may affect Fc mediated antibody effector functions. The majority of the human Fc glycans are complex biantennary structures with galactose as the prevalent terminal sugar. Immature glyco-forms, such as high-mannose glycol-forms (Man5-9), are of concern due to potential higher plasma clearance rate (as compared to the clearance rate of complex glycan linked mAbs).
(§2) Compounds are further evaluated essentially as described in Example 2 herein. Briefly, transfected CHO cells expressing recombinant human monoclonal antibody (mAb; two different cell lines expressing two different mAb, referred to as cell line 1 and cell line 2) are cultured in 24-deep well plates in the presence or absence of the compounds. At specified time points, samples of the cultures are taken and evaluated for viable cell density (VCD; expressed in 10^6 cells/mL); percent viability (as determined by any method known in the art); titer of recombinant protein (expressed in grams of protein per liter of culture, or g/L, as determined by Protein A affinity HPLC); qP, or specific productivity (expressed in picograms of recombinant protein per cell per day, or pg/c/d). Additional parameters measure include the presence or absence of high molecular weight substances (usually an indicator of protein aggregation; expressed as % of the total protein); and the relative percentage of Mannose 5. For comparison purposes, Compounds A and B, which had been previously tested, were tested again.

CHO cells [2] = test: Cell cycle analysis: propidium iodide staining and FACS; format: cell-based, Chinese hamster; settings: 5 microM
Procedure: (§3) In one set of experiments, a cell cycle analysis was performed for various cell cycle inhibitory compounds. Briefly, CHO cells are grown in 24 deep well plate (for example, Corning Axygen deep well plates; Corning, Amsterdam, The Netherlands), using standard cell-culture medium, under conditions promoting growth of the cells (for example 36 degreesC, 5% CO2) in the presence of various cell cycle inhibitors. Samples are collected at various time points, and cell cycle profiles are obtained by propidium iodide (PI) staining followed by fluorescence-activated cell sorting (FACS) analysis. Results for compounds 6-acetyl-8-cyclopentyl-5-methyl-2-((5-(1-piperazinyl)-2-pyridinyl)amino)pyrido[2,3-d][…] (Compound A) and N-(6-(4-(dimethylamino)-1-piperidinyl)-3-pyridazinyl)-9-(trans-4-methylcyclohexyl)-9H-pyrido[4′,3′,:4,5]pyrrolo[2,3-d]pyrimidin-2-amine (Compound B) are shown in Table 1 below.

[3] = test system: transfected CHO cells expressing recombinant human monoclonal antibody (cell line 2); test: 24-deep well culture, cell line 2: VCD, viability, titer, qP; format: cell-based, Chinese hamster
Procedure: as §1, §2

[4] = test system: mammalian cells such as CHO cells; test: Predicted specific productivity of recombinant protein for Compound M; format: cell-based, Chinese hamster; settings: predicted from Table 4, structural similarity, CDK4 assay and cell proliferation assay
CHO cells [5] = test: Initial dosage and time course study: cell viability and growth arrest (Table 4); format: cell-based, Chinese hamster
Procedure: as §3
Various compounds were tested in an initial dosage and time course study to ascertain their effects on cell viability and growth phase arrest substantially as described previously in Example 1. Compounds were evaluated for effect, or lack thereof, on viability, as well as their ability to cause growth arrest. Compounds that maintained at least 80% cell viability at one or more concentrations for the five day duration of this assay were regarded as having relatively little or no cell cytotoxicity.

T1 sequence (P11802 whole entry, species assumed, the tested form may be a part): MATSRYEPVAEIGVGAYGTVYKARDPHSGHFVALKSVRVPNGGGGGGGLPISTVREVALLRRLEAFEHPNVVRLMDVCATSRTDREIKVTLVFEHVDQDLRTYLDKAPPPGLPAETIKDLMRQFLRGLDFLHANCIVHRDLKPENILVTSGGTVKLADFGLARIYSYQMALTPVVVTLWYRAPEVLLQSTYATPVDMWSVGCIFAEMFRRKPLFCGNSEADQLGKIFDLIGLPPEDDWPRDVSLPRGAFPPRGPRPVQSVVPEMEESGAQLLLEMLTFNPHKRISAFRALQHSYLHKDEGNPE
T1 sequence (P24385 whole entry partner, species assumed, the tested form may be a part): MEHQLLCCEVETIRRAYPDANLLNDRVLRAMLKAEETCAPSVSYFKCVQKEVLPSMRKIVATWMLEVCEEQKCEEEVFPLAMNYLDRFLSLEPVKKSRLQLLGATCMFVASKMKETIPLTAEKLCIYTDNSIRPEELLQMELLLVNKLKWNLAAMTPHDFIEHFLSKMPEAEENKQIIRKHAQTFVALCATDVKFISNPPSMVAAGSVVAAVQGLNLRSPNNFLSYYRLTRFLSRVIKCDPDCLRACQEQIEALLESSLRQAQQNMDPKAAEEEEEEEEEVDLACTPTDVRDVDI

IC50 (CDK4/Cyclin D1): 2.75 nM
IC50 (Colo205): 14.8 nM
Structure (SMILES): CN(C)C1CCN(c2ccc(Nc3ncc4c5ccncc5n([C@H]5CC[C@H](C)CC5)c4n3)nn2)CC1 [Compound B, N-(6-(4-(dimethylamino)-1-piperidinyl)-3-pyridazinyl)-9-(trans-4-methylcyclohexyl)-9H-pyrido[4′,3′,:4,5]pyrrolo[2,3-d]pyrimidin-2-amine]
Titer ([1]; D 1): 0.47 g/L
VCD ([1]; D 1): 10.95 e6/mL
Viability ([1]; D 1): 94.83%
qP ([1]; D 1): 42.90 pg/c/d
Titer ([1]; D 2): 0.70 g/L
VCD ([1]; D 2): 9.61 e6/mL
Viability ([1]; D 2): 85.63%
qP ([1]; D 2): 72.84 pg/c/d
Titer ([1]; D 3): 0.96 g/L
VCD ([1]; D 3): 10.14 e6/mL
Viability ([1]; D 3): 82.33%
qP ([1]; D 3): 94.99 pg/c/d
Titer ([1]; D 4): 1.19 g/L
VCD ([1]; D 4): 12.66 e6/mL
Viability ([1]; D 4): 78.87%
qP ([1]; D 4): 94.23 pg/c/d
effect on viability ([1]; summary of Table 2): greater (but still modest) decreases in viability
growth arrest ([1]; summary of Table 2): more sustained growth arrest
Cell Cycle Distribution (%) G1 (CHO cells [2]; Day 1): 91.22%
Cell Cycle Distribution (%) G2/M (CHO cells [2]; Day 1): 2.74%
Cell Cycle Distribution (%) S (CHO cells [2]; Day 1): 6.04%
Cell Cycle Distribution (%) G1 (CHO cells [2]; Day 2): 74.82%
Cell Cycle Distribution (%) G2/M (CHO cells [2]; Day 2): 5.75%
Cell Cycle Distribution (%) S (CHO cells [2]; Day 2): 19.43%
Cell Cycle Distribution (%) G1 (CHO cells [2]; Day 3): 79.21%
Cell Cycle Distribution (%) G2/M (CHO cells [2]; Day 3): 3.49%
Cell Cycle Distribution (%) S (CHO cells [2]; Day 3): 17.3%
Cell Cycle Distribution (%) G1 (CHO cells [2]; Day 4): 78.68%
Cell Cycle Distribution (%) G2/M (CHO cells [2]; Day 4): 6.13%
Cell Cycle Distribution (%) S (CHO cells [2]; Day 4): 15.19%
Titer ([3]; 5 microM, D 1): 0.29 g/L
VCD ([3]; 5 microM, D 1): 10.88 e6/mL
Viability ([3]; 5 microM, D 1): 95.11%
qP ([3]; 5 microM, D 1): 26.34 pg/c/d
Titer ([3]; 5 microM, D 2): 0.49 g/L
VCD ([3]; 5 microM, D 2): 11.15 e6/mL
Viability ([3]; 5 microM, D 2): 89.60%
qP ([3]; 5 microM, D 2): 43.95 pg/c/d
Titer ([3]; 5 microM, D 3): 0.62 g/L
VCD ([3]; 5 microM, D 3): 13.45 e6/mL
Viability ([3]; 5 microM, D 3): 87.50%
qP ([3]; 5 microM, D 3): 46.35 pg/c/d
Titer ([3]; 5 microM, D 4): 0.89 g/L
VCD ([3]; 5 microM, D 4): 20.16 e6/mL
Viability ([3]; 5 microM, D 4): 87.46%
qP ([3]; 5 microM, D 4): 43.97 pg/c/d

IC50 (CDK4/Cyclin D1): 1.4 nM
IC50 (Colo205): 23.5 nM
Structure (SMILES): CN(C)C1CCN(c2ccc(Nc3ncc4c(n3)C3(C=CC(C)(C)CC3)c3cnccc3-4)nc2)CC1 (stereo not drawn) [Compound L, N-(5-(4-(dimethylamino)piperidin-1-yl)pyridin-2-yl)-4,4-dimethylspiro[cyclohex[2]ene-1,9′-pyrido[4′,3′:3,4]cyclopenta[1,2-d]pyrimidin]-2′-amine]
Titer ([3]; 1.2 microM, D 1): 0.28 g/L
VCD ([3]; 1.2 microM, D 1): 11.76 e6/mL
Viability ([3]; 1.2 microM, D 1): 94.88%
qP ([3]; 1.2 microM, D 1): 23.81 pg/c/d
Titer ([3]; 1.2 microM, D 2): 0.49 g/L
VCD ([3]; 1.2 microM, D 2): 13.63 e6/mL
Viability ([3]; 1.2 microM, D 2): 92.63%
qP ([3]; 1.2 microM, D 2): 35.94 pg/c/d
Titer ([3]; 1.2 microM, D 3): 0.58 g/L
VCD ([3]; 1.2 microM, D 3): 18.56 e6/mL
Viability ([3]; 1.2 microM, D 3): 92.09%
qP ([3]; 1.2 microM, D 3): 31.42 pg/c/d
Titer ([3]; 1.2 microM, D 4): 0.70 g/L
VCD ([3]; 1.2 microM, D 4): 26.40 e6/mL
Viability ([3]; 1.2 microM, D 4): 91.17%
qP ([3]; 1.2 microM, D 4): 26.64 pg/c/d
Titer ([3]; 2.4 microM, D 1): 0.28 g/L
VCD ([3]; 2.4 microM, D 1): 11.43 e6/mL
Viability ([3]; 2.4 microM, D 1): 94.24%
qP ([3]; 2.4 microM, D 1): 24.20 pg/c/d
Titer ([3]; 2.4 microM, D 2): 0.47 g/L
VCD ([3]; 2.4 microM, D 2): 12.95 e6/mL
Viability ([3]; 2.4 microM, D 2): 91.47%
qP ([3]; 2.4 microM, D 2): 36.29 pg/c/d
Titer ([3]; 2.4 microM, D 3): 0.60 g/L
VCD ([3]; 2.4 microM, D 3): 16.19 e6/mL
Viability ([3]; 2.4 microM, D 3): 90.68%
qP ([3]; 2.4 microM, D 3): 37.05 pg/c/d
Titer ([3]; 2.4 microM, D 4): 0.76 g/L
VCD ([3]; 2.4 microM, D 4): 24.27 e6/mL
Viability ([3]; 2.4 microM, D 4): 91.43%
qP ([3]; 2.4 microM, D 4): 31.18 pg/c/d

IC50 (CDK4/Cyclin D1): 15 nM
IC50 (Colo205): 92 nM
Structure (SMILES): CC(=O)c1c(C)c2cnc(Nc3ccc(N4CCNCC4)nn3)nc2n(C2CCCC2)c1=O [Compound M, 6-acetyl-8-cyclopentyl-5-methyl-2-((6-(piperazin-1-yl)pyridazin-3-yl)amino)pyrido[2,3-d]pyrimidin-7(8H)-one]
increase in specific productivity (qP) of recombinant protein [4]: > 200%
VCD (CHO cells [5]; 2.5 microM, D 1): 0.4656 e6/mL
VCD (CHO cells [5]; 2.5 microM, D 2): 0.6879 e6/mL
Viability (CHO cells [5]; 2.5 microM, D 2): 97.90%
VCD (CHO cells [5]; 2.5 microM, D 3): 1.1916 e6/mL
Viability (CHO cells [5]; 2.5 microM, D 3): 97.65%
VCD (CHO cells [5]; 2.5 microM, D 4): 2.1883 e6/mL
Viability (CHO cells [5]; 2.5 microM, D 4): 96.47%
VCD (CHO cells [5]; 5 microM, D 1): 0.4129 e6/mL
VCD (CHO cells [5]; 5 microM, D 2): 0.5439 e6/mL
Viability (CHO cells [5]; 5 microM, D 2): 97.90%
VCD (CHO cells [5]; 5 microM, D 3): 0.8760 e6/mL
Viability (CHO cells [5]; 5 microM, D 3): 97.67%
VCD (CHO cells [5]; 5 microM, D 4): 1.4543 e6/mL
Viability (CHO cells [5]; 5 microM, D 4): 95.90%
VCD (CHO cells [5]; 10 microM, D 1): 0.4204 e6/mL
VCD (CHO cells [5]; 10 microM, D 2): 0.4984 e6/mL
Viability (CHO cells [5]; 10 microM, D 2): 97.90%
VCD (CHO cells [5]; 10 microM, D 3): 0.7601 e6/mL
Viability (CHO cells [5]; 10 microM, D 3): 97.06%
VCD (CHO cells [5]; 10 microM, D 4): 1.2297 e6/mL
Viability (CHO cells [5]; 10 microM, D 4): 95.85%
VCD (CHO cells [5]; 20 microM, D 1): 0.3915 e6/mL
VCD (CHO cells [5]; 20 microM, D 2): 0.4101 e6/mL
Viability (CHO cells [5]; 20 microM, D 2): 97.90%
VCD (CHO cells [5]; 20 microM, D 3): 0.5348 e6/mL
Viability (CHO cells [5]; 20 microM, D 3): 97.31%
VCD (CHO cells [5]; 20 microM, D 4): 0.8023 e6/mL
Viability (CHO cells [5]; 20 microM, D 4): 96.04%
cytotoxicity and growth arrest properties (CHO cells [5]; compared with Compound A): very similar, at similar concentrations, to the properties of Compound A
